≈ marks a conversion by molar mass, not a printed value. Like-named read-outs stand apart in the source and are kept apart here. Marks after values point to notes of the source that are not given here.
Assays:
E. coli ATCC 25922 = test: MIC control strain; conditions: QC organism, Example 13
Aspergillus spp. = test: Antifungal broth microdilution (Example 13); assay type: cell-based, A. niger, A. terreus, A. fumigatus, A. flavus; conditions: for MEC at 48 hr: complete inhibition (MIC0) not observed
[1] = tested on: Burkholderia cepacia complex; test: Checkerboard FIC/FICI assay; assay type: cell-based, Burkholderia spp.; conditions: during FIC testing
Pseudomonas aeruginosa [2] = test: Broth microdilution MIC (Example 12); assay type: cell-based
S. aureus ATCC 29213 = conditions: CLSI established QC range; cited from earlier work
physchem = assay type: physicochemical
[3] = humans
Pseudomonas aeruginosa [4] = assay type: in vivo, Sprague Dawley rats; conditions: rats, single dose of BisEDT, by Day 5
Protocol: The efficacy of BisEDT in reducing pulmonary bacterial burden associated with pulmonary infection in a rat model of pulmonary Pseudomonas aeruginosa infection was evaluated. The results follow.
Conclusion: Animals were divided into four experiment inhalational treatment groups: 1) Group 1, a negative control group treated with saline on Days 0, 2, and 4; 2) Group 2, a positive control group treated with tobramycin (target of 20 mg/kg, BID, Days 1-4); 3) Group 3, BisEDT (target of 0.1 mg/kg, QD, Days 0, 2, 4); and Group 4, BisEDT (target of 0.25 mg/kg, once, Day −1). Animals were further divided into two cohorts, separated by one day, to accommodate the challenge and treatment of the number of animals. All animals were exposed per protocol except Group 1 and 3, cohort 2. These animals were exposed on Days 0, 1, and 4 instead of on Days 0, 2, 4.
An in vivo efficacy study was designed to assess the efficacy of inhaled BisEDT in a chronic model of P. aeruginosa pulmonary infection. […] Animals were euthanized at Study Day 3 and 5 and assessed for level of pulmonary bacterial burden. […]

Structure (SMILES): CC(S)C(C)S.[Bi] (stereo not shown) [BisBDT, bismuth-2,3-butanedithiol]
- MIC 24 hr (E. coli ATCC 25922): 0.5^a
- MIC (Aspergillus spp.; 24 h, A. flavus ATCC 22546, complete inhibition, 24 hr, read-out: MIC0 24 hr): 1 µg/mL
- MIC (Aspergillus spp.; 24 h, A. flavus ATCC 204304, complete inhibition, 24 hr, read-out: MIC0 24 hr): 4 µg/mL
- MIC (Aspergillus spp.; 24 h, A. flavus MMX 7935, complete inhibition, 24 hr, read-out: MIC0 24 hr): 8 µg/mL
- MIC (Aspergillus spp.; 24 h, A. fumigatus ATCC 204305, complete inhibition, 24 hr, read-out: MIC0 24 hr): 8 µg/mL
- MIC (Aspergillus spp.; 24 h, A. fumigatus ATCC MYA-3626, complete inhibition, 24 hr, read-out: MIC0 24 hr): 2 µg/mL
- MIC (Aspergillus spp.; 24 h, A. fumigatus MMX 5934, complete inhibition, 24 hr, read-out: MIC0 24 hr): 2 µg/mL
- MIC (Aspergillus spp.; 24 h, A. fumigatus MMX 5939, complete inhibition, 24 hr, read-out: MIC0 24 hr): 2 µg/mL
- MIC (Aspergillus spp.; 24 h, A. terreus MMX 8229, complete inhibition, 24 hr, read-out: MIC0 24 hr): 0.25 µg/mL
- MIC (Aspergillus spp.; 48 h, A. flavus ATCC 22546, complete inhibition, 48 hr, read-out: MIC0 48 hr): 2 µg/mL
- MIC (Aspergillus spp.; 48 h, A. flavus MMX 7935, complete inhibition, 48 hr, read-out: MIC0 48 hr): 8 µg/mL
- MIC (Aspergillus spp.; 48 h, A. fumigatus ATCC MYA-3626, complete inhibition, 48 hr, read-out: MIC0 48 hr): 4 µg/mL
- MIC (Aspergillus spp.; 48 h, A. fumigatus MMX 5939, 48 hr, cell marked footnote b, read-out: MIC0 48 hr): 4 µg/mL
- MIC (Aspergillus spp.; 48 h, A. terreus MMX 8229, complete inhibition, 48 hr, read-out: MIC0 48 hr): 1 µg/mL
- MEC at 48 hr (Aspergillus spp.; A. flavus ATCC 204304, 48 hr): 4/4^a μg/mL
- MIC 48 hr (Aspergillus spp.; A. flavus ATCC 204304, 48 hr, cells marked footnote c (not given; Table 109 gives the 48 hr results as MEC)): 4^c
- MEC at 48 hr (Aspergillus spp.; A. fumigatus ATCC 204305, 48 hr): 4 µg/mL
- MIC 24 hr (Aspergillus spp.; A. fumigatus ATCC MYA-3626, 24 hr): 2 µg/mL
- MIC 48 hr (Aspergillus spp.; A. fumigatus ATCC MYA-3626, 48 hr): 4 µg/mL
- MEC at 48 hr (Aspergillus spp.; A. fumigatus MMX 5934, 48 hr): 4 µg/mL
- MIC (Aspergillus spp.; A. niger ATCC 29508, complete inhibition, […], read-out: MIC0 48 hr): 2 µg/mL

Structure (SMILES): C[C@@H](O)[C@H]1C(=O)N2C(C(=O)O)=C(S[C@@H]3CN[C@H](C(=O)N(C)C)C3)[C@H](C)[C@H]12 [MEM]
- MIC ([1]; B. cenocepacia isolate 0548): 4 µg/mL
- MIC ([1]; B. cenocepacia isolate 0813): 9 µg/mL
- MIC ([1]; B. cepacia isolate 0546): 4 µg/mL
- MIC ([1]; B. cepacia isolate 1793): 4 µg/mL
- MIC ([1]; B. multivorans isolate 1795): 4 µg/mL
- MIC (Pseudomonas aeruginosa [2]; P. aeruginosa ATCC 27853, ATCC QC organism (Table 102)): 0.25 µg/mL (≈ 0.652 µM)
- MIC (Pseudomonas aeruginosa [2]; P. aeruginosa CDC 230, VIM/OXA): >8 µg/mL
- MIC (Pseudomonas aeruginosa [2]; P. aeruginosa CDC 231, KPC/OXA): >8 µg/mL
- MIC (Pseudomonas aeruginosa [2]; P. aeruginosa CDC 241, IMP/OXA): >8 µg/mL
- MIC (Pseudomonas aeruginosa [2]; P. aeruginosa CDC 246, NDM/OXA): >8 µg/mL
- MIC (Pseudomonas aeruginosa [2]; P. aeruginosa CDC 250, NDM/OXA): >8 µg/mL
- MIC (Pseudomonas aeruginosa [2]; P. aeruginosa CDC 356, KPC): >8 µg/mL
- MIC (Pseudomonas aeruginosa [2]; P. aeruginosa CDC 439, IMP): >8 µg/mL
- MIC (Pseudomonas aeruginosa [2]; P. aeruginosa CDC 444, VIM): >8 µg/mL
- MIC (Pseudomonas aeruginosa [2]; P. aeruginosa CDC 457, VIM): >8 µg/mL
- MIC (Pseudomonas aeruginosa [2]; P. aeruginosa CDC 516, KPC/AmpC): >8 µg/mL
- MIC (Pseudomonas aeruginosa [2]; P. aeruginosa CDC 518, KPC/AmpC): >8 µg/mL

Structure (SMILES): C1C[S][Bi]([S]CC[S][Bi]2[S]CC[S]2)[S]1 [BisEDT, Bismuth-1,2-ethanedithiol]
- QC range of MIC (S. aureus ATCC 29213): (0.12-1) μg/mL
- solubility (physchem): < 5 µg/mL
- well-tolerated topical concentration ([3]; 6 hours): up to 2500 μg/cm^2
- tolerated topical concentration ([3]; over 21 days continuous exposure, normal and abraded skin): up to 75 μg/cm^2
- efficacy vs tobramycin positive control group (Pseudomonas aeruginosa [4]): not significantly different
